Read-outs that look alike come from different tables or passages of the source. Where a SMILES comes first, the peptide text is derived from it. [ ]: non-standard residue; d: D form. The star is where a group is joined. Ms = CS(=O)(=O)*

Data on two compounds can be found in PMC3726930, “Synthesis and Biological Activity of N-Sulfonyltripeptides with C-Terminal Arginine as Potential Serine Proteases Inhibitors” (International Journal of Peptide Research and Therapeutics, 2012).

In one experiment the test system is MDA-MB-231 cells. The note with it: 24 h.
For another experiment, the system named is DLD cells. The note with it: 24 h.
For a further experiment, the target named is thrombin (Bos taurus, UniProt P00735). Nature of the experiment: Amidolytic activity of thrombin, substrate S-2238. It counts as biochemical. The note with it: Ki calculated from IC50 by Cheng-Prusoff, n.i. = no effect at maximum concentration 20 mM, read-out: Ki ± SD Thrombin. On the procedure: (§1) Determination of amidolytic activity was performed as previously described (Okada et al. [1988]). The detailed description of the method is given below. The buffer and the enzyme solution included: • tris buffer—0.6 ml (pH 8.8), […]
(§2) synthetic substrate: S-2444 (0.1 ml, 3 mM); • (b) tris buffer—0.5 ml (pH 8.4), enzyme: thrombin (1 U/ml), synthetic substrate: S-2238 (0.2 ml, 0.75 mM); • (c) tris buffer—0.5 ml (pH 7.4), Buffer and 0.1 ml of enzyme solution was added to 0.2 ml of examined compound dissolved in 0.15 M NaCl (1–17) (as control 0.15 M NaCl). The mixture was incubated for 3 min at 37 °C, then the synthetic substrate was added. After 20 min of incubation, the reaction was stopped by adding 0.1 ml of 50 % acetic acid, and the absorbance of the released p-nitroaniline was measured at 405 nm (Spekol 1300, AnalyticJena). Every value represents the average of the triplicate determination. IC50 value was considered as the concentration of the inhibitor, which decreased the absorbance at 405 nm by 50 %, compared with the absorbance measured under the same conditions without the inhibitor. Ki was calculated from IC50 based on Cheng–Prusoff equation (Cheng and Prusoff [1973]).

In experiment [1] the target is T1, plasmin (Homo sapiens, UniProt P00747).
T1 construct: converts the pro-enzyme plasminogen into its active form plasmin; purchased Chromogenix (Milano, Italy)
Nature of the experiment: SPRI, immobilised inhibitor interacting with plasmin. The note with it: plasmin 1 ng/ml. It counts as binding. The text has this: Gold chips were manufactured as described in previous papers (Gorodkiewicz [2009]; Gorodkiewicz and Regulska [2010]; Gorodkiewicz et al. [2011]). The gold surface of the chip was covered with photopolymer and hydrophobic paint. 9 × 12 free gold surfaces were obtained. Using this chip, nine different solutions can be simultaneously measured without mixing the tested solutions. Twelve single SPRI measurements can be performed from one solution.
Chips were rinsed with ethanol and water and dried under a stream of nitrogen. They were then immersed in 20 mM cysteamine ethanolic solutions for at least 2 h. The chips were then rinsed with ethanol and water and dried under a stream of nitrogen.
Among the synthesised compounds, four were selected for the examination of the interaction between the enzyme and the inhibitor. They were acids of peptides 10, 12, 13 and 14. Acids can be bound to a gold surface via cysteamine. […]
SPRI measurements with an application of an enzyme array were performed as described in previous papers (Gorodkiewicz [2009]; Gorodkiewicz and Regulska [2010]; Gorodkiewicz et al. [2011]). Briefly, the measurements were performed at a fixed angle of incident light and the reflectivity was simultaneously measured across an entire chip surface. […] The signal was measured twice on the basis of registered images, after immobilisation of enzymes and then after interaction inhibitors. […]

Experiment [2] addresses T1, plasmin. The experiment is described as follows: Amidolytic activity of plasmin, substrate S-2251. It counts as biochemical. The note with it: Ki calculated from IC50 by Cheng-Prusoff; triplicate; read-out: Ki ± SD Plasmin S-2251. The procedure:
as §1
as §2, with “synthetic” for “synthetic substrate: S-2444 (0.1 ml, 3 mM); • (b) tris buffer—0.5 ml (pH 8.4), enzyme: thrombin (1 U/ml), synthetic”, “7.4), enzyme: plasmin (0.4 U/ml), synthetic substrate: S-2251 (0.2 ml, 3 mM); • (d) […] buffer—0.5 ml (pH 7.5),” for “7.4),”

The target in a further experiment is urokinase (Homo sapiens, UniProt P00749). Nature of the experiment: Amidolytic activity of urokinase, substrate S-2444. Type of experiment: biochemical. The note with it: Ki calculated from IC50 by Cheng-Prusoff; triplicate; n.i. = no effect at maximum concentration 20 mM; read-out: Ki ± SD Urokinase S-2444. The procedure:
Determination of amidolytic activity was performed as previously described (Okada et al. [1988]). The detailed description of the method is given below. The buffer and the enzyme solution included: • tris buffer—0.6 ml (pH 8.8),
enzyme: urokinase (50 U/ml),
synthetic substrate: S-2444 (0.1 ml, 3 mM); • (b) tris buffer—0.5 ml (pH 8.4),
as §2, with “Buffer” for “synthetic substrate: S-2444 (0.1 ml, 3 mM); • (b) tris buffer—0.5 ml (pH 8.4), enzyme: thrombin (1 U/ml), synthetic substrate: S-2238 (0.2 ml, 0.75 mM); • (c) tris buffer—0.5 ml (pH 7.4), Buffer”

Experiment [3] deals with T1, plasmin. The note with it: ref Lynas et al. [2001]; cited from earlier work.

T1 sequence (P00747 581-810 limits assumed): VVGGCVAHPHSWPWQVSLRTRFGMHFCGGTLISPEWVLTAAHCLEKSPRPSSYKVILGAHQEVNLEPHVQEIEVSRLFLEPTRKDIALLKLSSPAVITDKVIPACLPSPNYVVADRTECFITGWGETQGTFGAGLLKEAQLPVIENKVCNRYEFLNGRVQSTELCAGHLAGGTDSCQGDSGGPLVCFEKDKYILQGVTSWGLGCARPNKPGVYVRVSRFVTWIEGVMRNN
T1 sequence (P00747 97-580 partner limits assumed): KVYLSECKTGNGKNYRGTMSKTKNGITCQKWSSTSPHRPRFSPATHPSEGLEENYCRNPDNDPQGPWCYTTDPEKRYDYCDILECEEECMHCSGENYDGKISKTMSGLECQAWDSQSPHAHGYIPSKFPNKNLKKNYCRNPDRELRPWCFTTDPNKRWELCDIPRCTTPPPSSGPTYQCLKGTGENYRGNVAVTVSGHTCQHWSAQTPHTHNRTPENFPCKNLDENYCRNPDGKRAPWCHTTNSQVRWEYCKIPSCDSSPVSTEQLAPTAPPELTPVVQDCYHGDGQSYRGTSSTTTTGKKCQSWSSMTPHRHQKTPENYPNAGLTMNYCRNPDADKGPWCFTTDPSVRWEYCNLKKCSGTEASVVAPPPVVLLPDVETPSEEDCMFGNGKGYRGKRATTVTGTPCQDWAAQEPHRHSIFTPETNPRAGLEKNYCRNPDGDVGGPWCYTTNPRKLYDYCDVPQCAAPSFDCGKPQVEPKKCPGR

As for `CS(=O)(=O)N[C@H](CO)C(=O)NCC(=O)N[C@@H](CCCNC(=N)N)C(=O)O` [Compound 12, CH3PhSO2-D-Ser-Gly-Arg-OH] (Ms-[dS]-Gly-Arg-OH; N-terminus and C-terminus assumed), the IC50 is 620 µM in the experiment on MDA-MB-231 cells and 230 µM in the experiment with DLD cells. Further, the Ki on thrombin was greater than 20000 µM; on plasmin [2], 10 ± 0.8 µM; on urokinase, 11.2 ± 0.89 µM. The “Inhibitor concentration above which the SPRI signal plateaus (plasmin)” value at plasmin [1] (Langmuir isotherm type curve) is “above 0.02 mM”. Besides, the “SPRI signal for plasmin after interaction with inhibitor” value at plasmin [1] (inhibitor 0.002-0.2 mM) is given as “positive SPRI signal”.
On to Ac-Leu-Leu-Arg-COCHO, for which the Ki at plasmin [3] was 4.9 µM.
